Results on two compounds are retold here after article PMC8581430, “Peptide ligands targeting FGF receptors promote recovery from dorsal root crush injury via AKT/mTOR signaling” (Theranostics, 2021).

In one experiment the test system is primary DRG neurons. The experiment is described as follows: Axon growth of primary adult DRG neurons. As to conditions: 48 h. It is filed as cell-based, Sprague-Dawley rat. On the procedure: (§1) Figure 3 Effect of the CH02 peptide on axon growth and neuron survival. (A) Representative images of the CH02 peptide effect on axon growth in adult primary DRG neurons. DRG neurons were obtained from adult Sprague-Dawley rats. After 12-h of culture, neurons were stimulated with CH02 or bFGF for 48 h. Axonal outgrowth was assessed by immunocytochemistry using an antibody against β-tubulin, an axonal marker. Images were acquired from random neurons by fluorescence microscopy. Scale bars = 50 μm. (B) Quantification of the longest axon length of each neuron randomly selected in three independent experiments from (A), using Image-Pro Plus 6.0 software (n = 48 for each condition; *p < 0.05, ****p < 0.0001 by one-way ANOVA with Dunnett's test; ns, not significant; mean ± SD). (C) Representative images of the CH02 effect on axon growth in ex vivo cultured adult DRG explants. The axon is shown in fluorescence (β3-tubulin) images. Scale bars = 100 μm. (D) Quantification of axon growth of DRG explants from (C) using the Neurite-J software (n=4 for each condition; *control vs. CH02; #control vs. bFGF; *p < 0.05, **p < 0.01, ***p < 0.001, #p < 0.05, ##p < 0.01 by two-way ANOVA with Dunnett's test; ns, not significant; mean ± SEM). (E) Cell cytotoxicity assay of primary DRG neurons induced by H2O2. LDH released from damaged cell membranes was detected by an LDH assay kit. The results are expressed as the mean ± SEM (**p < 0.01 by one-way ANOVA with Dunnett's test; ns, not significant, compared with the control group). (F) Representative TUNEL staining of apoptotic neurons induced by H2O2 in the control, CH02, and FGF2 groups. Scale bars = 50 μm. Apoptotic neurons were detected by a TUNEL apoptosis assay kit. TUNEL (green); NeuN, neuronal marker (red); DAPI (blue). (G) Quantification of TUNEL-positive neurons from (F) (n = 3 for each condition; **p < 0.01 by one-way ANOVA with Dunnett's test; ns, not significant, compared with the control group). DRG neurons were obtained from adult Sprague-Dawley rats. […]

Another experiment concerns DRG explants. The experiment is described as follows: Axon growth of ex vivo cultured adult DRG explants. It is filed as cell-based, Sprague-Dawley rat. The note with it: 4 days. The protocol: as §1, with “(F) Representative TUNEL staining of apoptotic neurons induced by H2O2 in the control, CH02, and FGF2 groups. Scale bars = 50 μm.” left out, “TUNEL (green); NeuN, neuronal marker (red); DAPI (blue).” left out, “group).” for “group). DRG neurons were obtained from adult Sprague-Dawley rats.”
DRG explants were harvested from adult Sprague-Dawley rats (220-250 g) and placed in a 3.5 cm dish containing 2 mL of ice-cold neurobasal medium supplemented with 1 × B27, 4 mM Glutamax and 3× penicillin/streptomycin (Pen/Strep). […] After 7 days of culture, axon growth was measured. […]

As for `CCN1CCN(c2ccc(Nc3cc(N(C)C(=O)Nc4c(Cl)c(OC)cc(OC)c4Cl)ncn3)cc2)CC1` [BGJ398], in the experiment on primary DRG neurons (CH02 20 μM + BGJ398 2 μM, n = 100), the “effect of inhibitor on CH02-enhanced neurite outgrowth, primary neurons” value was “inhibited the enhancement of neuron outgrowth associated with CH02 treatment”. Further, the “effect of inhibitor on CH02-enhanced neurite outgrowth, DRG explants” value with DRG explants (CH02 20 μM + BGJ398 2 μM, n = 5) is recorded as “inhibited the enhancement of neuron outgrowth associated with CH02 treatment”.
On to `N#CC(=C(/N)Sc1ccccc1N)/C(C#N)=C(/N)Sc1ccccc1N` [U0126], for which the “effect of AKT/ERK inhibitor on axon growth-promoting effect of CH02, DRG neurons” value in the experiment on primary DRG neurons (CH02 20 μM + inhibitor 2 μM, n = 40) is recorded as “had little effect”. Further, in the experiment with DRG explants (CH02 20 μM + inhibitor 2 μM, n = 4), the “effect of AKT/ERK inhibitor on axon growth-promoting effect of CH02, DRG explants” value was “had little effect”.
